Source: US11993582B2, “Crystalline forms of a LTA4H inhibitor” (Novartis AG, priority 2018, dated 2024)
Values after ≈ are worked out from the molar mass of the structure shown.

Key:
Assay type in all cases: physicochemical
[1] = Stability in solvent: equilibration of Form HB with solvent, residue analysed by XRPD; conditions: slurry experiments
Method: Equilibrations with solvent were carried out to investigate the relative stability of form HB in solvent. 50 mg of Form HB is equilibrated with 1 mL solvent for 24 h (or 7 days, or 28 days) in a water bath at 25° C. or for 7 days at 50° C. The solutions are filtered and dried for 10 minutes in air. The resulting solid is analyzed by XRPD.
Various solvent were investigated: acetone, acetonitrile, dichloromethane, dioxane, ethanol, heptane, methanol, THF, acetone/water mixtures from 10/90 to 90/10, acetonitrile/water mixtures from 10/90 to 90/10, dioxane/water mixtures from 10/90 to 90/10 and ethanol/water mixture from 10/90 to 90/10, tetrahydrofuran/water (50/50) and 1-propanol/water (70/30).

[2] = Hygroscopicity by DVS
Description: Crystalline form HB is a hydrated form of (S)-3-amino-4-(5-(4-((5-chloro-3-fluoropyridin-2-yl)oxy)phenyl)-2H-tetrazol-2-yl)butanoic acid.

[3] = Solid state stability in bulk (HPLC degradation products, XRPD)
Method: The chemical and physical stability of form B and form HB was investigated, exposing the individual forms to high humidity at temperatures ranging from 25-80° C.
The degradation products were analyzed by HPLC and the sample was analyzed by XPRD to detect any changes to the solid state.

[4] = Solubility in aqueous buffers and bio-relevant media
[5] = Competitive slurry experiments at different water activities
Method: Competitive slurry experiments at different water activities at 25° C. and at 50° C. were performed. Competitive slurries of a (1:1) physical mixture of Modifications HB and B at different water activities were also performed.

Which results are given for `N[C@@H](CC(=O)O)Cn1nnc(-c2ccc(Oc3ncc(Cl)cc3F)cc2)n1` [Form B, (S)-3-amino-4-(5-(4-((5-chloro-3-fluoropyridin-2-yl)oxy)phenyl)-2H-tetrazol-2-yl)butanoic acid]?
Form conversion through slurry [1]: does not transform into other form; Maximum water uptake ([2]; 25° C. at 90% RH by DVS): less than 0.7%; Hygroscopicity ([2]; by DVS): slightly hygroscopic; Hydrate formation ([3]; 1 week at 40° C./90% RH): no hydrate formation was detected; Stability in bulk ([3]; 1 week at 40° C./90% RH): stable; Chemical and physical stability in bulk ([3]; test conditions 1-5: 1 week, tight or open container, room temperature to 80° C., up to 92% RH): displayed good stability and did not convert at all; solubility ([4]; FaSSIF-V2 (pH=6.6)): 70 µg/mL (≈ 178 µM); solubility ([4]; FeSSIF-V2 (pH=5.9)): 180 µg/mL (≈ 458 µM); solubility ([4]; aqueous buffers, aqueous buffer, pH values of 4 to 7): 50 µg/mL (≈ 127 µM)

What does the source list for `N[C@@H](CC(=O)O)Cn1nnc(-c2ccc(Oc3ncc(Cl)cc3F)cc2)n1` (mixture of isomers) [Physical mixture of HB and B (1:1), (S)-3-amino-4-(5-(4-((5-chloro-3-fluoropyridin-2-yl)oxy)phenyl)-2H-tetrazol-2-yl)butanoic acid]?
Solid form after competitive slurry ([5]; 25 Degrees Celsius, Acetonitrile, aw 0.00, 2 days): Form B; Solid form after competitive slurry ([5]; 25 Degrees Celsius, Acetonitrile, aw 0.00, 5 days): Form B; Solid form after competitive slurry ([5]; 25 Degrees Celsius, Acetonitrile/water (83:17), aw 0.93, 2 days): Forms HB + B; Solid form after competitive slurry ([5]; 25 Degrees Celsius, Acetonitrile/water (83:17), aw 0.93, 5 days): Forms HB + B; Solid form after competitive slurry ([5]; 25 Degrees Celsius, Acetonitrile/water (88:12), aw 0.90, 2 days): Forms HB + B; Solid form after competitive slurry ([5]; 25 Degrees Celsius, Acetonitrile/water (88:12), aw 0.90, 5 days): Forms HB + B; Solid form after competitive slurry ([5]; 25 Degrees Celsius, Acetonitrile/water (92:8), aw 0.82, 2 days): Forms HB + B; Solid form after competitive slurry ([5]; 25 Degrees Celsius, Acetonitrile/water (92:8), aw 0.82, 5 days): Forms HB + B; Solid form after competitive slurry ([5]; 25 Degrees Celsius, Acetonitrile/water (97:3), aw 0.50, 2 days): Forms HB + B; Solid form after competitive slurry ([5]; 25 Degrees Celsius, Acetonitrile/water (97:3), aw 0.50, 5 days): Form B; Solid form after competitive slurry ([5]; 25 Degrees Celsius, Acetonitrile/water (98:2), aw 0.44, 2 days): Form B; Solid form after competitive slurry ([5]; 25 Degrees Celsius, Acetonitrile/water (98:2), aw 0.44, 5 days): Form B; Solid form after competitive slurry ([5]; 25 Degrees Celsius, Methanol, aw 0.00, 2 days): Form B; Solid form after competitive slurry ([5]; 25 Degrees Celsius, Methanol, aw 0.00, 5 days): Form B; Solid form after competitive slurry ([5]; 25 Degrees Celsius, Methanol/water (22:78), aw 0.90, 2 days): Forms HB + B; Solid form after competitive slurry ([5]; 25 Degrees Celsius, Methanol/water (22:78), aw 0.90, 5 days): Forms HB + B; Solid form after competitive slurry ([5]; 25 Degrees Celsius, Methanol/water (57:43), aw 0.70, 2 days): Forms HB + B; Solid form after competitive slurry ([5]; 25 Degrees Celsius, Methanol/water (57:43), aw 0.70, 5 days): Forms HB + B; Solid form after competitive slurry ([5]; 25 Degrees Celsius, Methanol/water (77:23), aw 0.50, 2 days): Form B; Solid form after competitive slurry ([5]; 25 Degrees Celsius, Methanol/water (77:23), aw 0.50, 5 days): Form B; Solid form after competitive slurry ([5]; 25 Degrees Celsius, Methanol/water (89:11), aw 0.30, 2 days): Form B; Solid form after competitive slurry ([5]; 25 Degrees Celsius, Methanol/water (89:11), aw 0.30, 5 days): Form B; Solid form after competitive slurry ([5]; 25 Degrees Celsius, Methanol/water (97:3), aw 0.11, 2 days): Form B; Solid form after competitive slurry ([5]; 25 Degrees Celsius, Methanol/water (97:3), aw 0.11, 5 days): Form B; Solid form after competitive slurry ([5]; 25 Degrees Celsius, Water, aw 1.00, 2 days): Forms HB + B; Solid form after competitive slurry ([5]; 25 Degrees Celsius, Water, aw 1.00, 5 days): Forms HB + B; Water activity (aw) at which the mixture converted into pure Form B ([5]; 25° C.): ≤ 0.5; Solid form after competitive slurry ([5]; 25° C., water activities above aw 0.5): remained unchanged; Solid form after competitive slurry ([5]; 50 degrees, Acetonitrile, aw 0.00, 2 days): Form B; Solid form after competitive slurry ([5]; 50 degrees, Acetonitrile, aw 0.00, 5 days): Form B; Solid form after competitive slurry ([5]; 50 degrees, Acetonitrile/water (83:17), aw 0.90, 2 days): Forms B + HB; Solid form after competitive slurry ([5]; 50 degrees, Acetonitrile/water (83:17), aw 0.90, 5 days): Form B; Solid form after competitive slurry ([5]; 50 degrees, Acetonitrile/water (88:12), aw 0.86, 2 days): Form B; Solid form after competitive slurry ([5]; 50 degrees, Acetonitrile/water (88:12), aw 0.86, 5 days): Form B; Solid form after competitive slurry ([5]; 50 degrees, Acetonitrile/water (92:8), aw 0.77, 2 days): Form B; Solid form after competitive slurry ([5]; 50 degrees, Acetonitrile/water (92:8), aw 0.77, 5 days): Form B; Solid form after competitive slurry ([5]; 50 degrees, Acetonitrile/water (97:3), aw 0.46, 2 days): Form B; Solid form after competitive slurry ([5]; 50 degrees, Acetonitrile/water (97:3), aw 0.46, 5 days): Form B; Solid form after competitive slurry ([5]; 50 degrees, Acetonitrile/water (98:2), aw 0.34, 2 days): Form B; Solid form after competitive slurry ([5]; 50 degrees, Acetonitrile/water (98:2), aw 0.34, 5 days): Form B; Solid form after competitive slurry ([5]; 50 degrees, Methanol, aw 0.00, 2 days): Form B; Solid form after competitive slurry ([5]; 50 degrees, Methanol, aw 0.00, 5 days): Form B; Solid form after competitive slurry ([5]; 50 degrees, Methanol/water (22:78), aw 0.90, 2 days): Forms HB + B; Solid form after competitive slurry ([5]; 50 degrees, Methanol/water (22:78), aw 0.90, 5 days): Forms B + HB; Solid form after competitive slurry ([5]; 50 degrees, Methanol/water (57:43), aw 0.71, 2 days): Form B; Solid form after competitive slurry ([5]; 50 degrees, Methanol/water (57:43), aw 0.71, 5 days): Form B; Solid form after competitive slurry ([5]; 50 degrees, Methanol/water (77:23), aw 0.51, 2 days): Form B; Solid form after competitive slurry ([5]; 50 degrees, Methanol/water (77:23), aw 0.51, 5 days): Form B; Solid form after competitive slurry ([5]; 50 degrees, Methanol/water (89:11), aw 0.31, 2 days): Form B; Solid form after competitive slurry ([5]; 50 degrees, Methanol/water (89:11), aw 0.31, 5 days): Form B; Solid form after competitive slurry ([5]; 50 degrees, Methanol/water (97:3), aw 0.21, 2 days): Form B; Solid form after competitive slurry ([5]; 50 degrees, Methanol/water (97:3), aw 0.21, 5 days): Form B; Solid form after competitive slurry ([5]; 50 degrees, Water, aw 1.00, 2 days): Forms B + HB; Solid form after competitive slurry ([5]; 50 degrees, Water, aw 1.00, 5 days): Forms HB + B; Maximum water activity (aw) for transformation to Form B ([5]; 50° C.): ≤ 0.7
